{"source": "patent US11401303B2", "about": "“Synthetic peptide BRAP and application in preparation of anti-inflammatory drug for COVID-19 thereof” (TAIAN CITY QIHANG BIOTECHNOLOGY CO., priority 2020, dated 2022)", "key": {"[1]": {"assay": "Limit test on intravenous injection at 2000 mg/kg BW dose level", "assay_type": "in vivo, Konmin mouse", "experimental": "I. Test Animal (Subject): Konmin Mouse: Healthy, Adult, Male, Weight≤20 g, and n=5 pcs\nIII. Administration Route and Dose: 2000 mg/kg BW was Injected Via a Tail Vein\nAdministration capacity: the maximum injection capacity of the mice tail vein was 0.5 ml/once, slow injection\nDose and mode of administration: 40 mg/1.5 ml working solution was administered for 3 times within 9 h.\n1) a test substance (synthetic peptide brap) having a dose of 2000 mg/kg was injected to the first Konmin mouse via tail vein;\n2) whether of causing toxic responses (initial symptom, starting time, namely, time period after administration, severity and duration) was observed and recorded;\n3) if the animal died, the response before being at death's door and the occurrence time of death were recorded."}, "[2]": {"system": "OVA-induced allergic rhinitis", "assay": "Rat allergic nasal inflammation (OVA-induced allergic rhinitis), intranasal administration", "assay_type": "in vivo, SD rat", "settings": "bilateral nasal cavities 50 μL/side, 4 weeks", "experimental": "SD rat modeling: two stages of intraperitoneal injection for sensitization and intranasal dripping for stimulation. Ovalbumin was injected intraperitoneally, and 1 mg ovalbumin (V-class Sigma, USA) was dissolved in 1 ml normal saline, and 30 mg of aluminum hydroxide was added as an immunologic adjuvant. Each rat was intraperitoneally injected 1 ml ovalbumin suspension prepared above with 1 ml/time every other day and for 7 times in total; and stimulated intranasally with ovalbumin on the 15th day; 20 mg ovalbumin (V-class Sigma, USA) were dissolved in 1 ml normal saline to be prepared into a 2% solution; and the 2% ovalbumin solution was used for stimulation by nasal dripping; and 50 ul nasal drips were administered in each of the nasal cavities of each rat for 7 consecutive days.\nBlank control group: 30 mg of aluminum hydroxide+1 ml of normal saline were mixed evenly, and then injected intraperitoneally; and the method was the same as the above.\nNormal saline was dripped into nasal cavities on the 15th day.\nAfter the final nasal dripping was performed, each rat was observed and evaluated according to a scoring table: Sneezing, nose scratching, gasping and nasal secretions\n1. Administration way: a drug was administered with a micro-sampling gun, bilateral nasal cavities of a rat were administered with 50 μL/side, after being administered for 20 min, a 2% ovalbumin solution was administered to bilateral nasal cavities of the rat; 50 μL/side nasal dripping was administered for provocation; the above treatment was performed for 4 consecutive weeks to observe the pharmacodynamic effect.\nHigh-dose synthetic peptide brap: a synthetic peptide brap freeze-dried powder (5 mg/bottle) was taken, and 1.63 ml sterile saline solution was added for dissolving;\nmedium-dose synthetic peptide brap: a synthetic peptide brap freeze-dried powder (5 mg/bottle) was taken, and 4.89 ml sterile saline solution was added for dissolving;\nlow-dose synthetic peptide brap: a synthetic peptide brap freeze-dried powder (5 mg/bottle) was taken, and 14.67 ml sterile saline solution was added for dissolving;"}, "ROS": {"system": "ROS", "assay": "ROS fluorescence intensity in lung tissue of LPS-induced mice by flow cytometry", "assay_type": "in vivo, Balb/C mice", "experimental": "1. About 100 mg fresh left lung tissue from each group of mice constructed in example 9 was taken and washed for three times with PBS to remove blood;\n2. the tissue was put in a nylon net, ground by a grinding rod, and washed by PBS;\n3. a cell suspension was collected, and filtered by a 200-mesh sieve to remove tissue blocks;\n4. the cell suspension was collected and centrifuged for 5 min at 1000 rpm/min;\n5. cellular supernatant was removed and PBS was added for resuspending;\n6. 10 μmol/L DCFH-DA was prepared with a serum-free culture solution;\n7. cells were centrifuged to remove PBS, and the above probe diluent was added to make the cell concentration being 10^6/ml;\n8. the cells were incubated for 30 min at 37° C., and shaken off for once every 3 min;\n9. the cells were centrifuged for 5 min at 1000 rpm/min, and cell precipitates were resuspended on a serum-free culture medium;\n10. step 9 was repeated for twice;\n11. 500 μL PBS was added to resuspend cells, and flow cytometry was used to detect mean fluorescence intensity."}, "[3]": {"system": "LPS-induced acute lung injury", "assay": "LPS-induced acute lung injury in mice, HE pathological examination of lung tissues", "assay_type": "in vivo, Balb/C mice", "settings": "LPS 5 mg/kgBW i.p.", "experimental": "1. Grade-SPF male Balb/C mice, body weight: 20±2 g, and n=48\n3. Grouping and treatment: mice were randomly divided into 8 groups (A-H), 6 pcs./group;\n3-1: 3 different treatments were given for 3 consecutive days respectively before modeling:\nA. normal control group: normal saline was injected via the tail vein for once/day;\nB. LPS model group: normal saline was injected via the tail vein for once/day;\nC. model sp2 administration group: sp2 (16 mg/kgBW) was injected via the tail vein for once/day;\nD. model high-dose brap administration group: brap (16 mg/kgBW) was injected via the tail vein for once/day;\nE. model medium-dose brap administration group: brap (8 mg/kgBW) was injected via the tail vein for once/day;\nF. model low-dose brap administration group: brap (4 mg/kgBW) was injected via the tail vein for once/day;\nG. model brap intranasal administration group: brap (3 mM) was administered nasal administration on both sides, 15 μl/each side; once a day;\nH. model dexamethasone administration group (a positive control group): dexamethasone, DEX, 5 mg/kg was injected intraperitoneally for once a day.\nAnimals from groups A-H were continuously administered the above treatments for 30 min respectively, then group A was intraperitoneally injected isopyknic normal saline, and other groups were intraperitoneally injected LPS 5 mg/kgBW.\n1. Tissue section and extending\n2. Tissues were dewaxed and hydrated.\n3. Tissues were dyed with a hematoxylin stain for 5-20 min (adjusted according to different tissues and experimental requirements), and washed by tap water.\n4. Then, tissues were differentiated by a differentiation solution for 30 s.\n5. Tissues were soaked by tap water for 15 min or warm water (about 50° C.) for 5 min.\n6. Tissues were put in an Eosin stain for 2 min (adjusted according to different tissues and experimental requirements), and washed by tap water.\n7. Then, the tissues were soaked by tap water for 5 min.\n8. Dehydration by gradient alcohol: Tissues were dehydrated by 95%, 100% I, and 100% II for 1 min each;\n9. Transparency by xylene: tissues were subjected to xylene I and II for 10 min.\n10. Neutral balsam mounting.\n11. Then, it was put and dried in an oven at 60° C., and observed under microscope."}, "IL-6 mRNA": {"system": "IL-6 mRNA", "assay": "IL6 mRNA expression in lung tissues of LPS-induced mice by qPCR", "assay_type": "in vivo, Balb/C mice", "experimental": "1.1 Lung tissue sample: a fresh lung tissue sample from each group of mice constructed in example 9 was taken and quick-frozen by liquid nitrogen as quickly as possible, and kept at […].\n2. Extraction of total RNA (a total RNA extraction kit via a paramagnetic particle method was used)\n2.1 The tissue sample was cut into small pieces, and ground (50 mg) to powder via liquid nitrogen, and transferred to a 1.5 ml tube free of RNA enzyme (cell sample and other liquid samples required no grinding, and were directly put to the next step).\nUsing the operational method of Applied Biosystems 7300/7500/7500 Fast Real-Time PCR System and StepOnePlusTMReal-Time PCR System\n1. Preparation of a PCR reaction liquid\n2. Real Time PCR reaction was performed.\nAt the end of the reaction, an amplification curve and dissociation curve of Real Time\nPCR were confirmed, and 2^−ΔΔct and the like were calculated."}, "[4]": {"settings": "2000 mg/kg BW via tail vein in 3 injections, individual mouse"}}, "note": "Entries after “also recorded” stand apart in the source; their conditions may differ. Ends that are not written are not given here.", "data": [{"sequence": "RVLNGPEAPA [brap]", "values": [{"measurement": "Death situation/survival animals, 72 h after administering", "setting": "[1]; [4]", "result": "No death"}, {"measurement": "Toxic response manifestation", "setting": "[1]; [4]", "result": "No abnormal"}, {"measurement": "Toxicity in the limit test", "setting": "[1]; intravenous injection of 2000 mg/kg BW, mice n=5", "result": "no toxicity was found"}, {"measurement": "LD50 at 9 h", "setting": "[1]; male, Konmin, in vivo, 2000 mg/kg BW, intravenous, mouse, judgment rule if survival animals ≥3 (5 of 5 survived)", "result": "> 2000", "unit": "mg/kg"}, {"measurement": "Scoring change before and after treatment", "setting": "[2]; all dose groups of the peptide, continued OVA provocation", "result": "decreases"}, {"measurement": "Allergic rhinitis symptom scoring compared with the model group", "setting": "[2]; high, medium and low dose, significant difference", "result": "can improve the OVA-induced allergic rhinitis symptoms"}, {"measurement": "ROS content in lung tissues", "setting": "ROS; induced by LPS for 6 h", "result": "obviously reducing the increase in ROS content"}, {"measurement": "ROS content in lung tissue", "setting": "ROS; induced by LPS for 12 h", "result": "obviously reducing the increase in ROS content"}, {"measurement": "ROS content in lung tissues", "setting": "ROS; intranasal administration, LPS-induced mice", "result": "reducing the overly increased ROS content"}, {"measurement": "ROS content in lung tissues", "setting": "ROS; intravenous injection, LPS-induced mice", "result": "obviously decreases the overly increased ROS content"}, {"measurement": "Lung tissue pathology (HE)", "setting": "[3]; 16 mg/kgBW via tail vein once/day", "result": "No abnormality; also recorded: no thickened pulmonary septum and no obvious inflammatory cell infiltration"}, {"measurement": "Lung tissue pathology (HE)", "setting": "[3]; intranasal 3 mM, 15 μl/each side once a day", "result": "no obvious abnormality"}, {"measurement": "Lung tissue pathology (HE)", "setting": "[3]; medium and low dose, 8 and 4 mg/kgBW via tail vein once/day", "result": "inflammatory cell infiltration begins to appear"}, {"measurement": "IL-6 mRNA overexpression in lung tissues", "setting": "IL-6 mRNA; intranasal administration", "result": "obviously decrease the overexpression"}, {"measurement": "IL-6 mRNA overexpression in lung tissues", "setting": "IL-6 mRNA; intravenous injection", "result": "obviously decrease the overexpression"}]}]}
